Reference: US9376406B2, “uPAR-uPA interaction inhibitors and methods for treating cancer” (Indiana University Research and Technology Corporation, priority 2011, dated 2016)
pIC50, pKd: −log10 of the molar value. Entries after “also recorded” stand apart in the source; their conditions may differ.

Tests used:
uPAR = biological target: T1, uPAR (Homo sapiens, UniProt Q03405); assay: Fluorescence polarization, direct binding to uPAR
T1 construct: uPAR comprising amino acids 1-277 was expressed in Drosophila S2 cells; made in house; host or cells: Drosophila S2 cells
Procedure: Fluorescence polarization in the presence and absence of protein and were measured using identical conditions as described above.
The mP was evaluated in the a presence and absence of competing 10 μM GFD.

MDA-MB-231 cells [1] = assay: Adhesion assay; type: cell-based, human; conditions: MDA-MB-231, fibronectin- and vitronectin-coated wells
Procedure: (§1) Adhesion Assay. 96-well plates were coated with 15 ng/μl fibronectin (Sigma, St. Louis, Mo.) at 4° C. overnight, then blocked with 0.5% BSA in PBS for 1 h. After starving with serum-free medium for 3 h, H1299 or MDA-MB-231 (2.5×10^5 cells/ml) were trypsinized and suspended in 100 μl of 0.1% FBS medium with various concentrations of uPAR compounds or DMSO control at 37° C. for 90 min. Medium was then carefully suctioned out from each well. Each well was washed three times with PBS. MTT-assay was used to determine the number of remaining cells (adherent cells).
(§2) The numbers of attached cells were quantified by MTT assay. Adherent cells are also quantified with fluorescence. […] The lack of inhibition was found both on fibronectin- and vitronectin-coated wells.

H1299 cells [2] = assay: Adhesion assay; type: cell-based, human; conditions: H1299, fibronectin- and vitronectin-coated wells
Procedure: as §1, §2

MDA-MB-231 cells [3] = assay: Wound healing assay; type: cell-based; conditions: Homo sapiens; MDA-MB-231, wound healing; read-out: migration IC50
Procedure: (§3) Wound Healing Assay. Confluent cell monolayers in 12-well plates were wounded by scraping with a micropipette tip. The cells were washed and then cultured in complete media containing the compounds. The degree of wound closure was assessed in three randomly chosen regions by measuring the distance between the wound edges just after wounding and after 16 h under Nikon Diaphot 300 microscope.
(§4) Without being bound by theory, it is believed that, to invade neighboring tissue, cells must acquire additional motility, although invasion and migration may proceed through different mechanisms. […] The first uses the Boyden chamber apparatus to assess the effect of compound on migration primarily mediated by chemotaxis. […] The other approach to test for effects on migration was the wound healing assay, which probes migration mediated by a concentration gradient established by the wound. It is also not as sensitive to potential cytotoxic effects.

H1299 cells [4] = assay: Wound healing assay; type: cell-based; conditions: Homo sapiens, NCI-H1299, read-out: migration IC50
Procedure: as §3, §4

MDA-MB-231 cells [5] = assay: Immunofluorescence imaging of surface uPA and uPAR; type: cell-based, human; conditions: MDA-MB-231, 100 μM, 30 min, vs DMSO control
Procedure: (§5) Immunofluorescence Imaging. An immunofluorescence approach was employed to establish the specificity of the compounds. This consisted of using a fluorescently labeled secondary antibody to probe for the presence of an anti-uPA antibody bound to uPA at the cell surface of MDA-MB-231 and H1299 cancer cells. […] Non-specific bindings were blocked with 5% normal goat serum, 5% BSA, 0.01% Triton X-100 in PBS at RT for 1 h, the cells were then incubated overnight at 4° C. with rabbit polyclonal anti-human uPA or mouse monoclonal anti-human uPAR antibodies (both at a dilution of 1:100 in 1% BSA/PBS). After another washing step with PBS three times, the cells were incubated with anti-rabbit IgG conjugated with Alexa 594 Texas Red (Invitrogen Corporation, Carlsbad, Calif.) or goat anti-mouse IgG conjugated with Alexa Fluor 488 (Invitrogen Corporation, Carlsbad, Calif.), both at a dilution of 1:1000 in 1% BSA/PBS at RT for 1 h in the dark. Images were acquired using a Nikon swept-filed confocal microscope.
(§6) Endogenous uPAR and uPA in the non-small cell lung cancer (NSCLC) cell line H1299 and in a breast cancer cell line MDA-MB-231 were immunostained with selective antibodies and visualized by staining with fluorescently-conjugated secondary antibodies. Cells are stained with (a) a monoclonal antibody against uPAR or (b) a polyclonal antibody against uPA.
(§7) In cells with clear surface staining, the surface of each cell was outlined using uPAR staining and then the pixel immunodensity for uPAR and uPA were determined using Nikon elements software in the outlined regions. Only cells where the cell membrane was clearly discernible were included in the analysis. Each value represents the mean±S.E. from 26-30 cells taken from three different fields from two independent samples. *significant difference from the DMSO control (p<0.001, Student's t test). In the absence of any compound (0.1% DMSO; vehicle control) both uPAR and uPA were detected in large intracellular clusters as well as on surface membranes of MDA-MB-231 cells.

H1299 cells [6] = assay: Immunofluorescence imaging of surface uPA and uPAR; type: cell-based, human; conditions: H1299, 100 μM, 30 min, vs DMSO control
Procedure: as §5, §6, §7

MDA-MB-231 cells [7] = assay: Transwell (Boyden chamber) migration assay; type: cell-based, human
Procedure: (§8) Transwell Migration Assay. A 24 well transwell plates (Costar, Corning, N.Y.) were coated with fibronectin. After 4 h of serum starvation, medium containing the same amount of compounds or DMSO were added to the upper chamber and incubated at 37° C. for 8 h. The number of migrated cells was counted in 10 separate 200×fields and averaged over three independent experiments. Cytotoxicity of the compounds on the cells was measured at the same concentrations used in the migration assay during the same incubation time. MTT was added 2 h before measuring.
as §8, with “A” for “Transwell Migration Assay. A”, “30 ng/μl of fibronectin at 4° C. overnight. 500 μl of 10% FBS RPMI-1640 medium containing compounds or 1% DMSO control was added to the lower chamber.” for “fibronectin.”, “starvation, 5×10^4 cells in 250 μl of 0.1% FBS” for “starvation,”, “h. […]” for “h.”, “time,” for “time.”, “measuring. […]” for “measuring.”

H1299 cells [8] = assay: Transwell (Boyden chamber) migration assay; type: cell-based, human
Procedure: as §8
as §8, with “A” for “Transwell Migration Assay. A”, “30 ng/μl of fibronectin at 4° C. overnight. 500 μl of 10% FBS RPMI-1640 medium containing compounds or 1% DMSO control was added to the lower chamber.” for “fibronectin.”, “starvation, 5×10^4 cells in 250 μl of 0.1% FBS” for “starvation,”, “h. […]” for “h.”, “time,” for “time.”, “measuring. […]” for “measuring.”

T1 sequence (Q03405 23-299): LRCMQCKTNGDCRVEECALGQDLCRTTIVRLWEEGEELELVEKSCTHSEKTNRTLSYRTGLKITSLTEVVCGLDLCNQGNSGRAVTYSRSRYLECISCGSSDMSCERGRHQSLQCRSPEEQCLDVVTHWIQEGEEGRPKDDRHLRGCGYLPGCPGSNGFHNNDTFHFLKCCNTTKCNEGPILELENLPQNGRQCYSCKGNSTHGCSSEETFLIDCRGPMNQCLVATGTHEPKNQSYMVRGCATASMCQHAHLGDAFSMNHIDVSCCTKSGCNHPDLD

`CC1CC(C)CN(c2cc(Nc3ccccc3C(=O)O)c3c4c(onc24)-c2ccccc2C3=O)C1` (stereo not shown) [IPR-456] was tested, and the pKd (uPAR; direct binding to uPAR by fluorescence polarization) was 6.51, the “fluorescence polarization (mP) with increasing uPAR concentration” value (uPAR; excitation 530 nm, emission 600 nm) was “showed a dose response with increasing mP” and the “change in polarization with increasing uPAR” value (uPAR; in the presence of 10 μM competing GFD) was “no change in the polarization was detected”. The cell adhesion (MDA-MB-231 cells [1]) was “no effect on cell adhesion; also recorded: lack an effect”, the cell adhesion (H1299 cells [2]) was “no effect on cell adhesion; also recorded: lack an effect” and the pIC50 (MDA-MB-231 cells [3]) was about 3.82. The pIC50 (H1299 cells [4]) was about 3.82, the “immunostaining pattern of uPAR” value (MDA-MB-231 cells [5]) was “no change in the immunostaining pattern of uPAR” and the “uPA staining at the cell surface” value (MDA-MB-231 cells [5]) was “significant reduction of uPA staining at the cell surface; also recorded: impairs binding of uPA to uPAR at the cell membrane”. For the same compound, the “immunostaining pattern of uPAR” value (H1299 cells [6]) was “no change in the immunostaining pattern of uPAR”, the “uPA staining at the cell surface” value (H1299 cells [6]) was “significant reduction of uPA staining at the cell surface; also recorded: impairs binding of uPA to uPAR at the cell membrane” and the “migration, Boyden chamber” value (MDA-MB-231 cells [7]) was “blocked migration in a dose-dependent manner”. For the same compound, the “migration, Boyden chamber” value (H1299 cells [8]) was “blocked migration in a dose-dependent manner”.
